Source: patent publication US12084458B2, “Substituted pyridines, pyridazines, and pyrimidines as TYK2 inhibitors” (Sudo Biosciences Limited, priority 2021, dated 2024)

Key:
Format in all cases: cell-based
[1] = system: HEK-Blue IL-23 cells (IL-23-stimulated STAT3 SEAP reporter; TYK2 JH2); test: HEK-Blue IL-23 SEAP reporter assay for profiling TYK2 pseudokinase (JH2) inhibition; conditions: 10 ng/mL human recombinant IL-23, SEAP reporter, read-out: IL23 (TYK2 inhibitory activity, IC50)
Protocol: (§1) Example B-1: HEK-Blue™ IL-23 and IFNα/β Reporter Assays for Profiling TYK2 Pseudokinase (JH2) Inhibition
(§2) HEK-Blue™ IL-23 and IFNα/β cells with a stably-integrated cytokine receptor and STAT3 or STAT1 express STAT-inducible secreted embryonic alkaline phosphatase (SEAP) reporter gene upon cytokine stimulation. These cells are plated in DMEM (Gibco) containing 10% heat-inactivated FBS (Gibco) and 100 U/mL PenStrep (Gibco) at 37° C. under 5% CO2 conditions for 20-22 hours. The cells are then pretreated with serially diluted test compounds for 60 min prior to stimulation with either 10 ng/mL human recombinant IL-23 (Miltenyl Biotech) or 1 ng/mL human recombinant IFNα (InvivoGen) for 22-24 hours for IL-23 or 16-18 h for IFNα. SEAP induction is measured using the QUANTI Blue™ Solution (InvivoGen) according to the manufacturer's instructions.

[2] = system: HEK-Blue IL-2 reporter cells (IL-2-stimulated STAT5 SEAP reporter); test: HEK-Blue IL-2 SEAP reporter assay for determining selectivity; conditions: 4 ng/mL human recombinant IL-2
Protocol: (§3) Example B-3: HEK-Blue™ IL-2 and IFNγ Reporter Assays for Determining Selectivity
(§4) HEK-Blue™ IL-2 and IFNγ reporter cells with a stably-integrated cytokine receptor and STAT5 or STAT1 express STAT-inducible secreted embryonic alkaline phosphatase (SEAP) reporter gene upon cytokine stimulation. These cells were plated in DMEM (Gibco) containing 10% heat-inactivated FBS (Gibco) and 100 U/mL PenStrep (Gibco) at 37° C. under 5% CO2 conditions for 20-22 hours. The cells were then pretreated with serially diluted test compounds for 60 min prior to stimulation with either 4 ng/mL human recombinant IL-2 (Miltenyl Biotech) or 50 ng/mL human recombinant IFNγ (InvivoGen) for 24 hours. SEAP induction was measured using the QUANTI-Blue™ Solution (InvivoGen) according to the manufacturer's instructions.

[3] = system: HEK-Blue IFNα/β cells (IFNα-stimulated STAT1 SEAP reporter; TYK2 JH2); test: HEK-Blue IFNα/β SEAP reporter assay for profiling TYK2 pseudokinase (JH2) inhibition; parameters: IFNα (TYK2 inhibitory activity, IC50): scale not given here; conditions: 1 ng/mL human recombinant IFNα; for IC50: Homo sapiens, HEK-Blue, read-out: IFNα (TYK2 inhibitory activity, IC50)
Protocol: as §1, §2

[4] = system: HEK-Blue IFNγ reporter cells (IFNγ-stimulated STAT1 SEAP reporter); test: HEK-Blue IFNγ SEAP reporter assay for determining selectivity; conditions: Homo sapiens, HEK-Blue, 50 ng/mL human recombinant IFNγ, read-out: IFN-γ (SEAP selectivity, IC50)
Protocol: as §3, §4

Row | Compound | IC50 [1] [nM] | IC50 [2] [nM] | IC50 [3] [nM] | IC50 [4] [nM] | IFNα (TYK2 inhibitory activity, IC50) [3]
1 | [2H]C([2H])([2H])NC(=O)c1nnc(NC(=O)C2CC2)cc1Nc1cccc2c1N(C)[C@@H](C)c1nc(C)nn1-2 (single isomer, unassigned) [Compound 22] | < 30 | > 1000 | < 30 | 300 to 1000 | –
2 | [2H]C([2H])([2H])NC(=O)c1cnc(NC(=O)C2CC2)cc1Nc1cccc2c1N(C)[C@@H](C)c1nc(C)nn1-2 (single isomer, unassigned) [Compound 25] | < 30 | > 1000 | < 30 | > 1000 | –
3 | [2H]C([2H])([2H])NC(=O)c1cnc(NC(=O)NC)cc1Nc1cccc2c1N(C)[C@@H](C)c1nn(C)nc1-2 (single isomer, unassigned) [Compound 55] | < 30 | > 1000 | < 30 | > 1000 | –
4 | [2H]C([2H])([2H])NC(=O)c1cnc(NC(=O)NC)cc1Nc1cccc2c1N(C)[C@H](C)c1nn(C)nc1-2 (single isomer, unassigned) [Compound 56] | 30 to 300 | > 1000 | > 1000 | > 1000 | –
5 | [2H]C([2H])([2H])NC(=O)c1cnc(NC(=O)C2CC2)cc1Nc1cccc2c1N(C)[C@@H](C)c1nn(C)nc1-2 (single isomer, unassigned) [Compound 57] | < 30 | > 1000 | < 30 | > 1000 | –
6 | [2H]C([2H])([2H])NC(=O)c1nnc(NC(=O)C2CC2)cc1Nc1cccc2c1N(C)[C@@H](C)c1nn(C)nc1-2 (single isomer, unassigned) [Compound 60] | < 30 | > 1000 | < 30 | > 1000 | –
7 | [2H]C([2H])([2H])NC(=O)c1nnc(NC(=O)NC)cc1Nc1cccc2c1N(C)[C@@H](C)c1nn(C)nc1-2 (single isomer, unassigned) [Compound 62] | < 30 | > 1000 | < 30 | > 1000 | –
8 | [2H]C([2H])([2H])NC(=O)c1cnc(Nc2ccc(F)cn2)cc1Nc1cccc2c1N(C)Cc1nc(C)nn1-2 [Compound 27, 4-((2,5-dimethyl-4,5-dihydro-[1,2,4]triazolo[1,5-a]quinoxalin-6-yl)amino)-6-((5-fluoropyridin-2-yl)amino)-N-(methyl-d3)nicotinamide] | < 30 | > 1000 | – | 300 to 1000 | –
9 | [2H]C([2H])([2H])NC(=O)c1cnc(NC(=O)N(C)C)cc1Nc1cccc2c1N(C)Cc1nn(C)nc1-2 [Compound 51, 4-((2,5-dimethyl-4,5-dihydro-2H-[1,2,3]triazolo[4,5-c]quinolin-6-yl)amino)-6-(3,3-dimethylureido)-N-(methyl-d3)nicotinamide] | < 30 | > 1000 | – | – | –
10 | [2H]C([2H])([2H])NC(=O)Nc1cc(Nc2cccc3c2N(C)Cc2nn(C)nc2-3)c(C(=O)NC([2H])([2H])[2H])cn1 [Compound 67, 4-((2,5-dimethyl-4,5-dihydro-2H-[1,2,3]triazolo[4,5-c]quinolin-6-yl)amino)-N-(methyl-d3)-6-(3-(methyl-d3)ureido)nicotinamide] | < 30 | > 1000 | < 30 | – | –
11 | [2H]C([2H])([2H])NC(=O)c1cnc(N(C)C(=O)C2CC2)cc1Nc1cccc2c1N(C)Cc1nc(C)nn1-2 [Compound 82, 4-((2,5-dimethyl-4,5-dihydro-[1,2,4]triazolo[1,5-a]quinoxalin-6-yl)amino)-N-(methyl-d3)-6-(N-methylcyclopropanecarboxamido)nicotinamide] | > 1000 | – | > 1000 | – | –
12 | [2H]C([2H])([2H])NC(=O)c1cnc(NC(=O)C2CC2)cc1Nc1ccnc2c1N(C)Cc1nc(C)nn1-2 [Compound 86, 6-(cyclopropanecarboxamido)-4-((2,5-dimethyl-4,5-dihydropyrido[3,2-e][1,2,4]triazolo[1,5-a]pyrazin-6-yl)amino)-N-(methyl-d3)nicotinamide] | 30 to 300 | – | 300 to 1000 | – | –
13 | [2H]C([2H])([2H])NC(=O)c1nnc(NC(=O)C2CC2)cc1Nc1ccnc2c1N(C)Cc1nc(C)nn1-2 [Compound 87, 6-(cyclopropanecarboxamido)-4-((2,5-dimethyl-4,5-dihydropyrido[3,2-e][1,2,4]triazolo[1,5-a]pyrazin-6-yl)amino)-N-(methyl-d3)pyridazine-3-carboxamide] | 30 to 300 | – | 300 to 1000 | – | –
14 | [2H]C([2H])([2H])NC(=O)c1nnc(NC(=O)C2CC2)cc1Nc1c(F)ccc2c1N(C)Cc1nc(C)nn1-2 [Compound 98, 6-(cyclopropanecarboxamido)-4-((7-fluoro-2,5-dimethyl-4,5-dihydro-[1,2,4]triazolo[1,5-a]quinoxalin-6-yl)amino)-N-(methyl-d3)pyridazine-3-carboxamide] | 30 to 300 | – | – | – | C/D
15 | [2H]C([2H])([2H])NC(=O)c1nnc(NC(=O)NC)cc1Nc1cc(F)cc2c1N(C)Cc1nc(C)nn1-2 [Compound 103, 4-((8-fluoro-2,5-dimethyl-4,5-dihydro-[1,2,4]triazolo[1,5-a]quinoxalin-6-yl)amino)-N-(methyl-d3)-6-(3-methylureido)pyridazine-3-carboxamide] | 30 to 300 | – | 30 to 300 | – | –
16 | [2H]C([2H])([2H])NC(=O)c1nnc(NC(=O)C2CC2)cc1Nc1nccc2c1N(C)[C@@H](C)c1nc(C)nn1-2 [Compound 112, (S)-6-(cyclopropanecarboxamido)-N-(methyl-d3)-4-((2,4,5-trimethyl-4,5-dihydropyrido[3,4-e][1,2,4]triazolo[1,5-a]pyrazin-6-yl)amino)pyridazine-3-carboxamide] | < 30 | – | 30 to 300 | – | –
17 | [2H]C([2H])([2H])NC(=O)c1nnc(NC(=O)C2CC2)cc1Nc1nccc2c1N(C)[C@@H](C([2H])([2H])[2H])c1nn(C)nc1-2 [Compound 113, (S)-6-(cyclopropanecarboxamido)-4-((2,5-dimethyl-4-(methyl-d3)-4,5-dihydro-2H-[1,2,3]triazolo[4,5-c][1,7]naphthyridin-6-yl)amino)-N-(methyl-d3)pyridazine-3-carboxamide] | 30 to 300 | – | 30 to 300 | – | –
18 | [2H]C([2H])([2H])NC(=O)c1nnc(NC(=O)C2CC2)cc1Nc1nccc2c1N(C)[C@H](C([2H])([2H])[2H])c1nn(C)nc1-2 [Compound 114, (R)-6-(cyclopropanecarboxamido)-4-((2,5-dimethyl-4-(methyl-d3)-4,5-dihydro-2H-[1,2,3]triazolo[4,5-c][1,7]naphthyridin-6-yl)amino)-N-(methyl-d3)pyridazine-3-carboxamide] | < 30 | – | < 30 | – | –
19 | [2H]C([2H])([2H])NC(=O)c1nnc(NC(=O)[C@H]2C[C@H]2F)cc1Nc1nccc2c1N(C)Cc1nn(C)nc1-2 [Compound 115, 4-((2,5-dimethyl-4,5-dihydro-2H-[1,2,3]triazolo[4,5-c][1,7]naphthyridin-6-yl)amino)-6-((1R,2R)-2-fluorocyclopropane-1-carboxamido)-N-(methyl-d3)pyridazine-3-carboxamide] | < 30 | – | < 30 | – | –
20 | [2H]C([2H])([2H])NC(=O)c1nnc(NC(=O)[C@@H]2C[C@@H]2F)cc1Nc1nccc2c1N(C)Cc1nn(C)nc1-2 [Compound 116, 4-((2,5-dimethyl-4,5-dihydro-2H-[1,2,3]triazolo[4,5-c][1,7]naphthyridin-6-yl)amino)-6-((1S,2S)-2-fluorocyclopropane-1-carboxamido)-N-(methyl-d3)pyridazine-3-carboxamide] | 30 to 300 | – | 300 to 1000 | – | –
